# ± gives the uncertainty stated by the source.
# Legend:
# [1] = system: Klebsiella pneumoniae ATCC 13882; assay: final OD630 (growth) after 24 h; higher = more bacterial growth; extreme values may be limits of the assay
# Method: (§1)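 Klebsiella pneumoniae ATCC 13882 (start OD600 0.05) grown in M9U medium with 40 mM urea and phenol red plus inhibitor, in triplicate in 96-well plates. A557 and OD630 were read every 15 min for 24 h. Ureolysis was followed as the pH-related A557-A630: onset time, Gompertz-fit rate and final value. Growth was followed as OD630.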
# [2] = system: Klebsiella pneumoniae ATCC 13882; assay: rate of pH (A557-A630) increase, Gompertz fit (10^-4 s-1); higher = faster ureolysis; extreme values may be limits of the assay
# Method: as §1
# [3] = system: Klebsiella pneumoniae ATCC 13882; assay: onset of ureolytic pH increase; higher = more delayed ureolysis (inhibition)
# Method: as §1
# [4] = system: Klebsiella pneumoniae ATCC 13882; assay: final pH-related absorbance (A557-A630) after 24 h (absorbance units); higher = more ureolysis; extreme values may be limits of the assay
# Method: as §1
Compound,final OD630 ([1]; 0.1 mM),final OD630 ([1]; 1 mM),final OD630 ([1]; 10 mM),rate of pH ([2]; 0.1 mM),rate of pH ([2]; 1 mM),rate of pH ([2]; 10 mM),onset of ureolytic pH increase ([3]; 0.1 mM) [h],onset of ureolytic pH increase ([3]; 1 mM) [h],onset of ureolytic pH increase ([3]; 10 mM) [h],final pH-related absorbance ([4]; 0.1 mM),final pH-related absorbance ([4]; 1 mM),final pH-related absorbance ([4]; 10 mM),other results
NC(=O)NC1NC(=O)NC1=O (stereo unspecified) [Allantoin],–,–,–,–,–,–,–,–,–,–,–,–,final OD630 ([1]; 0.033 mM): 0.525 ± 0.0093; final OD630 ([1]; 0.33 mM): 0.507 ± 0.0058; final OD630 ([1]; 3.33 mM): 0.495 ± 0.0081; rate of pH ([2]; 0.033 mM): 1.66 ± 0.032; rate of pH ([2]; 0.33 mM): 1.718 ± 0.017; rate of pH ([2]; 3.33 mM): 1.68 ± 0.02; onset of ureolytic pH increase ([3]; 0.033 mM): 9.624 ± 0.085 h; onset of ureolytic pH increase ([3]; 0.33 mM): 9.619 ± 0.0733 h; onset of ureolytic pH increase ([3]; 3.33 mM): 10 ± 0.117 h; final pH-related absorbance ([4]; 0.033 mM): 0.231 ± 0.0095; final pH-related absorbance ([4]; 0.33 mM): 0.216 ± 0.003; final pH-related absorbance ([4]; 3.33 mM): 0.222 ± 0.0053
O=C(O)CNc1ccc(O)cc1 [N-(4-Hydroxyphenyl)glycine],–,–,–,–,–,–,–,–,–,–,–,–,final OD630 ([1]; 0.001 mM): 0.438 ± 0.009; final OD630 ([1]; 0.011 mM): 0.357 ± 0.005; final OD630 ([1]; 0.112 mM): 0; rate of pH ([2]; 0.001 mM): 2.079 ± 0.0047; rate of pH ([2]; 0.011 mM): 2.81 ± 0.3; rate of pH ([2]; 0.112 mM): 0.632 ± 0.057; onset of ureolytic pH increase ([3]; 0.001 mM): 9.527 ± 0.0183 h; onset of ureolytic pH increase ([3]; 0.011 mM): 13.5 ± 0.25 h; onset of ureolytic pH increase ([3]; 0.112 mM): 0 min; final pH-related absorbance ([4]; 0.001 mM): 0.183 ± 0.003; final pH-related absorbance ([4]; 0.011 mM): 0.107 ± 0.013; final pH-related absorbance ([4]; 0.112 mM): 0.331 ± 0.042
O=C(O)C(=O)O [Oxalic acid],0.435 ± 0.0093,0.441 ± 0.0005,0.089 ± 0.0056,1.52 ± 0.024,1.62 ± 0.013,0,11.3 ± 0.015,11.29 ± 0.0183,> 15,0.334 ± 0.008,0.291 ± 0.0011,0,–
N#C[S-].[Na+] [Sodium thiocyanate],0.431 ± 0.003,0.445 ± 0.0004,0.403 ± 0.003,1.61 ± 0.036,1.6 ± 0.048,0.0522 ± 0.0032,11.25 ± 0.065,11.7 ± 0.167,12.8 ± 0.317,0.152 ± 0.002,0.144 ± 0.0019,0.123 ± 0.0011,–
Oc1ccc(O)cc1 [Hydroquinone],0.408 ± 0.021,0.423 ± 0.038,–,1.78 ± 0.19,1.58 ± 0.096,–,11.3 ± 0.118,11.7 ± 0.667,–,0.155 ± 0.0064,0.157 ± 0.0044,–,–
OCCS [2-mercaptoethanol],0.416 ± 0.0027,0.208 ± 0.0036,0.155 ± 0.0041,1.72 ± 0.061,0,0,10 ± 0.125,> 25,> 25,0.19 ± 0.0096,0,0,–
CN(CC(=O)O)C(=N)N [Creatine monohydrate],–,–,–,–,–,–,–,–,–,–,–,–,final OD630 ([1]; 0.0026 mM): 0.503 ± 0.012; final OD630 ([1]; 0.026 mM): 0.496 ± 0.0032; final OD630 ([1]; 0.26 mM): 0.497 ± 0.0049; rate of pH ([2]; 0.0026 mM): 1.73 ± 0.023; rate of pH ([2]; 0.026 mM): 1.73 ± 0.059; rate of pH ([2]; 0.26 mM): 1.78 ± 0.032; onset of ureolytic pH increase ([3]; 0.0026 mM): 9.537 ± 0.0367 h; onset of ureolytic pH increase ([3]; 0.026 mM): 9.59 ± 0.147 h; onset of ureolytic pH increase ([3]; 0.26 mM): 9.419 ± 0.0783 h; final pH-related absorbance ([4]; 0.0026 mM): 0.217 ± 0.0008; final pH-related absorbance ([4]; 0.026 mM): 0.22 ± 0.0025; final pH-related absorbance ([4]; 0.26 mM): 0.22 ± 0.0028
CC(O)(P(=O)(O)O)P(=O)(O)O [Etidronic acid monohydrate],0.432 ± 0.0054,0.443 ± 0.0026,0,1.63 ± 0.035,1.597 ± 0.013,0,11.23 ± 0.0383,11.2 ± 0.0417,> 15,0.323 ± 0.0087,0.28 ± 0.005,0,–
CC1=CC(=O)C(C)=CC1=O [2.5-dimethyl-1.4-benzoquinone],–,–,–,–,–,–,–,–,–,–,–,–,final OD630 ([1]; 0.011 mM): 0.33 ± 0.011; final OD630 ([1]; 0.107 mM): 0.336; final OD630 ([1]; 1.07 mM): 0; rate of pH ([2]; 0.011 mM): 1.46 ± 0.047; rate of pH ([2]; 0.107 mM): 1.97; rate of pH ([2]; 1.07 mM): 0.535 ± 0.0079; onset of ureolytic pH increase ([3]; 0.011 mM): 9.905 ± 0.04 h; onset of ureolytic pH increase ([3]; 0.107 mM): 15.8 h; onset of ureolytic pH increase ([3]; 1.07 mM): 0 min; final pH-related absorbance ([4]; 0.011 mM): 0.152 ± 0.0068; final pH-related absorbance ([4]; 0.107 mM): 0.116; final pH-related absorbance ([4]; 1.07 mM): 0.475 ± 0.011
NS(=O)(=O)O [Sulfamic acid],0.506 ± 0.0081,0.515 ± 0.014,0,2.17 ± 0.036,1.96 ± 0.055,0,9.36 ± 0.2,8.91 ± 0.118,> 15,0.166 ± 0.019,0.182 ± 0.011,0,–
NC=O [Formamide],0.513 ± 0.0092,0.512 ± 0.0096,0.513 ± 0.008,2.01 ± 0.1,2.24 ± 0.1,2.188 ± 0.02,9.17 ± 0.367,9.33 ± 0.25,9.53 ± 0.125,0.168 ± 0.021,0.172 ± 0.027,0.165 ± 0.021,–
O=C1C=CC(=O)N1c1ccccc1 [N-phenylmaleimide],–,–,–,–,–,–,–,–,–,–,–,–,final OD630 ([1]; 0.039 mM): 0.448 ± 0.07; final OD630 ([1]; 0.39 mM): 0; final OD630 ([1]; 3.9 mM): 0; rate of pH ([2]; 0.039 mM): 1.67 ± 0.056; rate of pH ([2]; 0.39 mM): 0; rate of pH ([2]; 3.9 mM): 0; onset of ureolytic pH increase ([3]; 0.039 mM): 13 ± 0.155 h; onset of ureolytic pH increase ([3]; 0.39 mM): > 25 h; onset of ureolytic pH increase ([3]; 3.9 mM): > 25 h; final pH-related absorbance ([4]; 0.039 mM): 0.136 ± 0.0029; final pH-related absorbance ([4]; 0.39 mM): 0; final pH-related absorbance ([4]; 3.9 mM): 0
"O=C(O)CCC(CC(=O)O)C(=O)O (stereo unspecified) [1,2,4-butanetricarboxylic acid]",0.424 ± 0.0051,0.433 ± 0.0031,0,1.526 ± 0.014,1.58 ± 0.019,0,11.425 ± 0.00233,11.31 ± 0.055,> 15,0.33 ± 0.0058,0.277 ± 0.0026,0,–
OB(O)c1ccc(Br)cc1 [4-bromophenylboronic acid],–,–,–,–,–,–,–,–,–,–,–,–,final OD630 ([1]; 0.0017 mM): 0.451 ± 0.0066; final OD630 ([1]; 0.017 mM): 0; final OD630 ([1]; 0.173 mM): 0; rate of pH ([2]; 0.0017 mM): 0.0566 ± 0.0019; rate of pH ([2]; 0.017 mM): 0.0294 ± 0.0052; rate of pH ([2]; 0.173 mM): 0; onset of ureolytic pH increase ([3]; 0.0017 mM): 12.4 ± 0.317 h; onset of ureolytic pH increase ([3]; 0.017 mM): 0 min; onset of ureolytic pH increase ([3]; 0.173 mM): > 25 h; final pH-related absorbance ([4]; 0.0017 mM): 0.12 ± 0.0018; final pH-related absorbance ([4]; 0.017 mM): 0.269 ± 0.042; final pH-related absorbance ([4]; 0.173 mM): 0
O=C(OC[C@H]1O[C@@H](OC(=O)c2cc(O)c(O)c(OC(=O)c3cc(O)c(O)c(O)c3)c2)[C@H](OC(=O)c2cc(O)c(O)c(OC(=O)c3cc(O)c(O)c(O)c3)c2)[C@@H](OC(=O)c2cc(O)c(O)c(OC(=O)c3cc(O)c(O)c(O)c3)c2)[C@@H]1OC(=O)c1cc(O)c(O)c(OC(=O)c2cc(O)c(O)c(O)c2)c1)c1cc(O)c(O)c(OC(=O)c2cc(O)c(O)c(O)c2)c1 [Tannic acid],0.452 ± 0.0032,0.433 ± 0.0003,0,1.47 ± 0.091,1.282 ± 0.0068,0,10.1 ± 0.517,10.69 ± 0.085,> 25,0.129 ± 0.0091,0.125 ± 0.0013,0,–
